Measured values reported in US10179770B2, “Quinolines derivatives as novel anticancer agents” (GENOSCIENCE PHARMA, priority 2013, dated 2019).
Counter-ions that a name gives are not always drawn. Like-named read-outs stand apart in the source and are kept apart here.

Legend:
HCT-116 [1] = test: EC50 determination in cancer cell lines; type: cell-based, human
Method: (§1) Compounds were added at different concentrations to each well, and cell cultures were incubated for 72 h. Vehicle (DMSO or H2O) was used as a control, and all compounds were tested in a constant percentage of vehicle. Cell outgrowth was measured using for adherent cells CellTiter […] Aqueous One Solution Cell Proliferation Assay (Promega) and for cell suspension, Sulforhodamine B colorimetric assay as described in Vichai et al. (Vichai, V. and Kirtikara, K. Nat. Protoc. 2006 (1) 1112-1116). Absorbance was measured using an Infinite F200 Pro or Sunrise TECAN plate reader.
(§2) The human melanoma cell line A375, colorectal carcinoma cell line HCT-116, hepatocellular carcinoma cell line HepG2 were cultured in Dulbecco's modified Eagle's medium supplemented with 10% fetal bovine serum and 1% Penicillin-Streptomycin. The human melanoma cell lines SK-MEL-28 and SK-MEL-5 were cultured in Minimum Essential Medium. The colorectal carcinoma cell lines HT-29 and Colo205 were respectively cultured in Mc Coy's and RPMI media. The human leukemia cell lines MV4-11 and KG-1 were cultured in Iscove's Modified Dulbecco's Media. The human leukemia cell line MOLM-14 was cultured in Minimum Essential Medium Alpha Medium supplemented with 10% Fetal Bovine Serum and 1% Penicillin-Streptomycin All culture media were supplemented with 10% fetal bovine serum and 1% Penicillin-Streptomycin except for MV4-11 cell line 20% fetal bovine serum and 1% Penicillin-Streptomycin. All the cell lines were maintained at 37° C. with 5% C02.
Briefly, adherent cells, A375, HCT-116, HepG2, SK-MEL-28, SK-MEL-5, HT-29 and Colo205 cells were respectively plated at 800, 5,000, 7,000, 2,500, 3,000-5,000, 5,000 or 5,000 cells per well onto 96-well plates in 90 μL of media per well and were allowed to grow overnight before the assay. For MV4-11 and KG-1 cells that grow in suspension, 40,000-60,000 cells were plated onto 96-well plates immediately before the assay. MOLM-14 cell line, that grow in suspension, 30,000 cells were plated onto 96-well plates immediately before the assay. […]
(§3) The experimental data are analyzed using a computer program, Graphpad Prism (GraphPad Software, Inc. La Jolla, Calif.) and EC50 values were determined as the dose of compound required to reduce absorbance values to 50% of the signal obtained for vehicle treated cell cultures and were a mean of at least two independent experiments except for EC50 values with (*) where […].

MOLM-14 [2] = test: EC50 determination in cancer cell lines; type: cell-based; conditions: Homo sapiens, 72 h
Method: as §1, §2
(§4) Briefly, adherent cells, A375, HCT-116, HepG2, SK-MEL-28, SK-MEL-5, HT-29 and Colo205 cells were respectively plated at 800, 5,000, 7,000, 2,500, 3,000-5,000, 5,000 or 5,000 cells per well onto 96-well plates in 90 μL of media per well and were allowed to grow overnight before the assay. For MV4-11 and KG-1 cells that grow in suspension, 40,000-60,000 cells were plated onto 96-well plates immediately before the assay. MOLM-14 cell line, that grow in suspension, 30,000 cells were plated onto 96-well plates immediately before the assay.
(§5) The cell growth measure was the same as described in example 51.
as §3

HepG2 = test: EC50 determination in cancer cell lines; type: cell-based, human
Method: as §1, §2, §4, §5, §3

A-375 = test: EC50 determination in cancer cell lines; type: cell-based, human
Method: as §1, §2, §4, §5, §3

MOLM-14 [3] = test: Cell proliferation assay at 10 μM; type: cell-based, human; conditions: Homo sapiens, read-out: Cell viability observed at 10 μM
Method: (§6) The human melanoma cell line A375 and colorectal carcinoma cell line HCT-116 were cultured in Dulbecco's modified Eagle's medium supplemented with 10% fetal bovine serum and 1% Penicillin-Streptomycin. The human leukemia cell line MOLM-14 was cultured in Minimum Essential Medium Alpha Medium supplemented with 10% Fetal Bovine Serum and 1% Penicillin-Streptomycin. All the cell lines were maintained at 37° C. with 5% CO2.
For MOLM-14 cell line, which grows in suspension, 30,000 cells were plated onto 96-well plates immediately before the assay.
as §1
(§7) In each experiment, each point represents the average of two replicates in cell culture.
(§8) Results are presented in Table 1 below for concentrations of 10 μM of tested compounds.

HCT-116 [4] = test: Cell proliferation assay at 10 μM; type: cell-based; conditions: Homo sapiens, HCT-116, 72 h, read-out: Cell viability observed at 10 μM
Method: as §6
(§9) Briefly, adherent cells, A375 and HCT-116 cells were respectively plated at 800 or 5,000 cells per well onto 96-well plates in 90 μL of media per well and were allowed to grow overnight before the assay.
as §1, §7, §8

A375 = test: Cell proliferation assay at 10 μM; type: cell-based, human; conditions: Homo sapiens, read-out: Cell viability observed at 10 μM
Method: as §6, §9, §1, §7, §8

Row | Compound | EC50 (HCT-116 [1]; Homo sapiens, HCT-116, 72 h) [µM] | EC50 (MOLM-14 [2]) [µM] | EC50 (HepG2; Homo sapiens, HepG2, 72 h) [µM] | EC50 (A-375; Homo sapiens, A-375, 72 h) [µM] | viability at 10 µM (MOLM-14 [3]; MOLM-14, 72 h) [%] | viability at 10 µM (HCT-116 [4]) [%] | viability at 10 µM (A375; A-375, 72 h) [%] | viability at 10 µM (MOLM-14 [3]; MOLM-14, 10 μM, 72 h, % of cell viability remaining) [%] | viability at 10 µM (HCT-116 [4]; HCT-116, 10 μM, 72 h, % of cell viability remaining) [%] | viability at 10 µM (A375; A-375, A375, 10 μM, 72 h, % of cell viability remaining) [%] | EC50 (HCT-116 [1]; 72 h) [µM] | EC50 (HepG2; 72 h) [µM] | EC50 (A-375; 72 h) [µM] | EC50 (HCT-116 [1]; Homo sapiens, 72 h) [µM] | EC50 (HepG2; Homo sapiens, 72 h) [µM] | EC50 (A-375; Homo sapiens, 72 h) [µM]
1 | CCN(CC)C1CCN(c2cc(-c3ccccc3)nc3cc(Cl)ccc23)CC1 [II-3, 7-chloro-2-phenyl-4-(4-N,N-diethylamino-piperidin-1-yl)quinoline] | 4 | 5 | 8 | 3 |  |  |  |  |  |  |  |  |  |  |  | 
2 | CCN(CC)C1CCN(c2cc(-c3ccc(-c4ccccc4)cc3)nc3ccccc23)CC1 [IX-2, 2-(1,1′-biphenyl)-4-yl-4-(4-N,N-diethylamino-piperidin-1-yl)quinoline dihydrochloride] | 4 | 4 | 13 | 3 | < 20 | < 20 | < 20 |  |  |  |  |  |  |  |  | 
3 | CCN(CC)C1CCN(c2cc(-c3ccc4ccccc4c3)nc3ccccc23)CC1 [VI-5, 2-(2-naphtyl)-4-(4-N,N-diethylamino-piperidin-1-yl)quinoline] | 6 | 5 | 11 | 4 |  |  |  |  |  |  |  |  |  |  |  | 
4 | CN(C)CCCNc1cc(-c2ccccc2)nc2ccccc12 [XL-2, N^1,N^1-dimethyl-N^3-(2-phenylquinoline-4-yl)propane-1,3-diamine trifluoroacetate salt] | 5 | 3 | 17 | 3 |  |  |  | < 20 | 20 to 40 | < 20 |  |  |  |  |  | 
5 | CN(C)CCCNc1cc(-c2ccccc2)nc2ccccc12 [XLI-1, N^1,N^1-dimethyl-N^3-(2-phenylquinoline-4-yl)propane-1,3-diamine] |  |  |  |  |  |  |  |  |  |  | 4 | 10 | 2 |  |  | 
6 | CN(C)CCCNc1cc(-c2ccc3ccccc3c2)nc2ccccc12 [XLII-2, N^1,N^1-dimethyl-N^3-[2-(naphtalen-2-yl)quinoline-4-yl]propane-1,3-diamine hydrochloride salt] | 11 | 4 | 19 | 3 | < 20 | < 20 | < 20 |  |  |  |  |  |  |  |  | 
7 | CN(C)CCCNCc1cc(-c2ccccc2)nc2cc(Cl)ccc12 [XLIV-1, N^1,N^1-dimethyl-N^3-(7-chloro-2-phenylquinoline-4-ylmethyl)-propane-1,3-diamine] | 6 | 6 | 10 | 4 |  |  |  |  |  |  |  |  |  |  |  | 
8 | COc1ccc(-c2cc(N3CCC(NC(C)(C)C)CC3)c3ccccc3n2)cc1 [XV-8, 2-(4-methoxy-phenyl)-4-(4-N-tert-butylamino-piperidin-1-yl)quinoline dihydrochloride] | 17 | 3 | 27 | 10 | < 20 | > 80 | 20 to 40 |  |  |  |  |  |  |  |  | 
9 | CCN(CC)C1CCN(C(C)c2cc(-c3ccccc3)nc3cc(Cl)ccc23)CC1 (stereo not shown) [XVI-4, 7-Chloro-2-phenyl-4-{1-[4-(N,N-diethylamino)-piperidin-1-yl]-eth-1-yl}quinoline dihydrochloride] | 6 | 6 | 13 | 4 | < 20 | < 20 | < 20 |  |  |  |  |  |  |  |  | 
10 | CCN(CC)C1CCN(Cc2cc(-c3ccccc3)nc3cc(Cl)ccc23)CC1 [XVII-6, 7-Chloro-2-phenyl-4-[4-(N,N-diethylamino)-piperidin-1-ylmethyl]quinoline dihydrochloride] | 4 | 5 | 8 | 3 | < 20 | < 20 | < 20 |  |  |  |  |  |  |  |  | 
11 | CC(c1cc(-c2ccccc2)nc2ccccc12)N1CCC(NC(C)(C)C)CC1 (stereo not shown) [XXIII-2, 2-phenyl-4-{1-[4-N-tert-butylamino-piperidinyl]-eth-1-yl}quinoline dihydrochloride] |  | 6 |  |  | < 20 | 20 to 40 | < 20 |  |  |  |  |  |  | 11 | 18 | 8
